Measurements: article PMC8585119, “MATE-Type Proteins Are Responsible for Isoflavone Transportation and Accumulation in Soybean Seeds” (International Journal of Molecular Sciences, 2021)
Residue numbers refer to the chain shown, from its start.

What was measured:
Experiment in all cases: yeast uptake assay, UPLC of cell extract versus empty vector
Assay type in all cases: cell-based
Conditions in all cases: fed as 200 uM mixture of genistein, daidzein and glycitein; PBS pH 7.4, 30 °C, overnight/24 h; whole yeast cells
GmMATE2^W05 = target: T1, GmMATE2^W05 (Glycine soja, UniProt A0A191UP89)
T1 construct: gene MATE2; full-length CDS in pGBKT7 without GAL4 BD, ADH1 promoter, in yeast Y2HGold; no tag stated
T1 sequence (A0A191UP89 1-496): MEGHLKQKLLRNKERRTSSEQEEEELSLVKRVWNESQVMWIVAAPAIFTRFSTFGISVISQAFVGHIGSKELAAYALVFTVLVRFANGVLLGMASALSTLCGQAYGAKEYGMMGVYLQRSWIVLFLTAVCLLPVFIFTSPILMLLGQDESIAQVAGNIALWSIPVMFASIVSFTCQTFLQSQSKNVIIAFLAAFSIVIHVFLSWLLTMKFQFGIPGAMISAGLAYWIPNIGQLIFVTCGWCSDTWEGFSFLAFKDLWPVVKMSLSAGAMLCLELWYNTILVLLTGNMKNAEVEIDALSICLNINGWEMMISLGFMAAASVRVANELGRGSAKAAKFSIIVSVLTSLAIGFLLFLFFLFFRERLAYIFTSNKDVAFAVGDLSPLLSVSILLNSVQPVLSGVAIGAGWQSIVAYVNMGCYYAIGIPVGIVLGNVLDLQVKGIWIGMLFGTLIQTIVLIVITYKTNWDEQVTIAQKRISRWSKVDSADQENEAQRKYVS

GmMATE1^W05 = target: T2, GmMATE1^W05 (Glycine soja, UniProt A0A191UP88)
T2 construct: gene MATE1; full-length CDS in pGBKT7 without GAL4 BD, ADH1 promoter, in yeast Y2HGold; no tag stated
T2 sequence (A0A191UP88 1-495): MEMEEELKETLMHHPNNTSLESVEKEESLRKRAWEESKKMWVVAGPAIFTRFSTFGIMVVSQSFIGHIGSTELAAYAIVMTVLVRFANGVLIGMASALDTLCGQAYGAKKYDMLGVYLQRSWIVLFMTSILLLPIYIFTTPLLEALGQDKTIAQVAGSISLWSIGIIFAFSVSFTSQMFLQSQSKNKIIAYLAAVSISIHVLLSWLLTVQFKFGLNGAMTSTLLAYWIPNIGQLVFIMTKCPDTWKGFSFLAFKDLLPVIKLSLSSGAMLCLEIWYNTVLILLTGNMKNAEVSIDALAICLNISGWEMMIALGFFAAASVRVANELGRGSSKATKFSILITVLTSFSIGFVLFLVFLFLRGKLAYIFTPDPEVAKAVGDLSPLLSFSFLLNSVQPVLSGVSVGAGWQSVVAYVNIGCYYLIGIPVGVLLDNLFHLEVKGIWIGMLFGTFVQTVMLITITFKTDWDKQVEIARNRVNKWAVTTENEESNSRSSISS

GmMATE2^C08 = target: T3, GmMATE2^C08 (Glycine max, UniProt I1N8G8)
T3 construct: gene LOC100796360; full-length CDS in pGBKT7 without GAL4 BD, ADH1 promoter, in yeast Y2HGold; no tag stated
T3 sequence (I1N8G8 1-496): T1 sequence (A0A191UP89 1-496) with S483N

GmMATE1^C08 = target: T4, GmMATE1^C08 (Glycine max, UniProt I1N8G7)
T4 construct: gene LOC100775619; full-length CDS in pGBKT7 without GAL4 BD, ADH1 promoter, in yeast Y2HGold; no tag stated
T4 sequence (I1N8G7 1-495): T2 sequence (A0A191UP88 1-495) with L206V, S330N

| Compound | yeast uptake assay, UPLC of cell extract versus empty vector (GmMATE2^W05) | yeast uptake assay, UPLC of cell extract versus empty vector (GmMATE1^W05) | yeast uptake assay, UPLC of cell extract versus empty vector (GmMATE2^C08) | yeast uptake assay, UPLC of cell extract versus empty vector (GmMATE1^C08) |
| --- | --- | --- | --- | --- |
| O=c1c(-c2ccc(O)cc2)coc2cc(O)cc(O)c12 [genistein] | allelic forms from either the cultivated soybean C08 or the wild soybean W05 exhibited similar | allelic forms from either the cultivated soybean C08 or the wild soybean W05 exhibited similar | yeasts expressing GmMATE1 and GmMATE2 significantly accumulated more of all three metabolites | yeasts expressing GmMATE1 and GmMATE2 significantly accumulated more of all three metabolites |
| O=c1c(-c2ccc(O)cc2)coc2cc(O)ccc12 [daidzein] | allelic forms from either the cultivated soybean C08 or the wild soybean W05 exhibited similar | allelic forms from either the cultivated soybean C08 or the wild soybean W05 exhibited similar | yeasts expressing GmMATE1 and GmMATE2 significantly accumulated more of all three metabolites | yeasts expressing GmMATE1 and GmMATE2 significantly accumulated more of all three metabolites |
